Experimental data from patent US9533965B2, “2-arylbenzofuran-7-formamide compounds, preparation method and use thereof” (SHANGHAI INSTITUTE OF MATERIA MEDICA, CHINESE ACADEMY OF …, priority 2012, dated 2017).

What was measured:
TNKS1 = target: T1, TNKS1 (Homo sapiens, UniProt O95271); assay: Enzymatic inhibition on the PARP family members (ELISA), TNKS1; type: biochemical; conditions: PARP family panel, 30° C.
T1 sequence (O95271 1-1327): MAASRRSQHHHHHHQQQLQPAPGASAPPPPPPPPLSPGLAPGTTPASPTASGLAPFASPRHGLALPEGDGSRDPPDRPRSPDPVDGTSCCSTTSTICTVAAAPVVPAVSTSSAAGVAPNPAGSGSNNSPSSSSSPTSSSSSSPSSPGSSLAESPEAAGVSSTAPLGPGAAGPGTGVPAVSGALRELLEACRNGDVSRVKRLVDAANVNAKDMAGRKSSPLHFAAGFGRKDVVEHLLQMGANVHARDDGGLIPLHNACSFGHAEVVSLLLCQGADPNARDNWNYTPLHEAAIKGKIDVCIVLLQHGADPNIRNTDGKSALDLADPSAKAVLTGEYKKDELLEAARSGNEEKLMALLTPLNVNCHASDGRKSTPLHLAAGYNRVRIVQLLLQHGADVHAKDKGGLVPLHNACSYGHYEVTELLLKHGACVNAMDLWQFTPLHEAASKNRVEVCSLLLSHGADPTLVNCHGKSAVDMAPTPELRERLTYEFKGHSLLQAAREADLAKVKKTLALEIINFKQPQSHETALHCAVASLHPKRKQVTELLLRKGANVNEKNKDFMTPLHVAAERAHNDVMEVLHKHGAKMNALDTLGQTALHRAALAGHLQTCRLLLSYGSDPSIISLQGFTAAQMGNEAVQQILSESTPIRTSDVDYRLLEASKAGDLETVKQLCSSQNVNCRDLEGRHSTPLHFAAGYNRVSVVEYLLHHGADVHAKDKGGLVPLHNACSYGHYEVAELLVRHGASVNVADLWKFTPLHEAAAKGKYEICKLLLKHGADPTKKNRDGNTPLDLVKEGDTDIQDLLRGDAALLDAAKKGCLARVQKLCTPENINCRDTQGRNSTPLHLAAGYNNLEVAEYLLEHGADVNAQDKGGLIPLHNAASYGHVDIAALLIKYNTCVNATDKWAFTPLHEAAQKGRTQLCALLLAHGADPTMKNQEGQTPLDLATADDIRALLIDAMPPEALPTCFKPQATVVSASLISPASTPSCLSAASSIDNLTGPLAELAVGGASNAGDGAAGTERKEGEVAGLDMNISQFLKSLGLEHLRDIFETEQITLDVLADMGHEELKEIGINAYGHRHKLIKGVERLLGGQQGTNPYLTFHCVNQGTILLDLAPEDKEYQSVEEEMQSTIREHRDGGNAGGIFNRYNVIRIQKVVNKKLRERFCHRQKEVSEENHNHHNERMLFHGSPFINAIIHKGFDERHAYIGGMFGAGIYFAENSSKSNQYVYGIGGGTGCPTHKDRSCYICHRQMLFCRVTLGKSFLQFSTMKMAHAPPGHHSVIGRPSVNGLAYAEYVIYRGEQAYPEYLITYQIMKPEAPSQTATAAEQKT

PARP3 = target: T2, PARP3 (Homo sapiens, UniProt Q9Y6F1); assay: Enzymatic inhibition on the PARP family members (ELISA), PARP3; type: biochemical; conditions: PARP family panel
T2 sequence (Q9Y6F1 1-533): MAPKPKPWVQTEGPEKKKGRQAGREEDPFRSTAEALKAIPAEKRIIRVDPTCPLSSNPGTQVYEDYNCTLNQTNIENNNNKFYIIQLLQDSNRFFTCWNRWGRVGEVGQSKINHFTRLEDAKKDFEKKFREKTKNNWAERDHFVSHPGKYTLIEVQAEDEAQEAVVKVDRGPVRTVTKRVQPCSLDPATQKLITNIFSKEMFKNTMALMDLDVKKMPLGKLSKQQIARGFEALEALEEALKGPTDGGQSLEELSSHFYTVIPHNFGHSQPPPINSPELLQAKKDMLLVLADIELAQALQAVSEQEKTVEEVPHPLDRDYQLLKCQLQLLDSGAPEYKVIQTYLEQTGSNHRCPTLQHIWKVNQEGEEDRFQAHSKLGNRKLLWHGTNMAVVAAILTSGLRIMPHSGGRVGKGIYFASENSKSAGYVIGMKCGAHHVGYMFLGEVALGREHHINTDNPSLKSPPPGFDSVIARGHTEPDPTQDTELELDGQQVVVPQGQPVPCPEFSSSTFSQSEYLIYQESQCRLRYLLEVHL

PARP1 = PARP1 (Homo sapiens, UniProt P09874); assay: Enzymatic inhibition on the PARP family members (ELISA), PARP1; type: biochemical
wild type cell line V79 = assay: In vitro cell proliferation inhibition (MTT), V79 cells; type: cell-based, Chinese hamster; conditions: Cricetulus griseus; MTT, 72 h, wild type V79; read-out: V79 cell IC50

Sequence of PARP1 (P09874 whole entry): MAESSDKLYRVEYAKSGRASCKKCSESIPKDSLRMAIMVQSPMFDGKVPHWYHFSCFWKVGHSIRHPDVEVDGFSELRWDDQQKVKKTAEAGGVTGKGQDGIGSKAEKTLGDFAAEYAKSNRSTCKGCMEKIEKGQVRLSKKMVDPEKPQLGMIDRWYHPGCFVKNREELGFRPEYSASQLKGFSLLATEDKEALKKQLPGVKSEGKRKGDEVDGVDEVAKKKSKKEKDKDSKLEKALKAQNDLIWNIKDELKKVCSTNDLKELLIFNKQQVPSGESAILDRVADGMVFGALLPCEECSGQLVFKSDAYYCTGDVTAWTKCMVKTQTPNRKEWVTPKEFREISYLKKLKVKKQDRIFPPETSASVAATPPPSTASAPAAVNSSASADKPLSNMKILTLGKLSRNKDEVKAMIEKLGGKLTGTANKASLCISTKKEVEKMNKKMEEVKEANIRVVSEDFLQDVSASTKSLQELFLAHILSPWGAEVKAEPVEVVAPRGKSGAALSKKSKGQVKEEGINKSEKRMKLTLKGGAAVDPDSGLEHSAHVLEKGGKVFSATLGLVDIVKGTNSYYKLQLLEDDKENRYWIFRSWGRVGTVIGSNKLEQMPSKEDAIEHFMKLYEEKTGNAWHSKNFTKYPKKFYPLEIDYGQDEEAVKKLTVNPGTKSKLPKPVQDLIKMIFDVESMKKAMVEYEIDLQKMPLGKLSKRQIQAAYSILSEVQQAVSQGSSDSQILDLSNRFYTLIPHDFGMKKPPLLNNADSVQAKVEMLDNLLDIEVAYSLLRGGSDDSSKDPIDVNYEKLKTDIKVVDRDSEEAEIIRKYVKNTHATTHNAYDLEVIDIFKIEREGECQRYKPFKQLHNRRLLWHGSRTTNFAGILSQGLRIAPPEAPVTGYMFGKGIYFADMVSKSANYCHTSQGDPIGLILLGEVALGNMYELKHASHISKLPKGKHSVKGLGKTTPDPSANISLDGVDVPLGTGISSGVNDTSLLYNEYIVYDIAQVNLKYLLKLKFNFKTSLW

CNCc1ccc(-c2cc3cc(F)cc(C(N)=O)c3o2)cc1 [compound 5b, 5-fluoro-2-{4-[(methylamino)methyl]phenyl}benzofuran-7-carboxamide]
IC50 (TNKS1): 1600 nM
IC50 (PARP3): > 10000 nM
inhibitory activity on PARP1/2 relative to other isoenzymes in the family (PARP1; PARP1/2 versus PARP3, TNKS1, TNKS2, PARP6): at least 400 times
IC50 (PARP1; PARP family panel): 3.2 nM
IC50 (wild type cell line V79): > 10000 nM
